From US20260109693A1, “BUTENOLIDE COMPOUNDS CONTAINING THIAZOLIDINONE STRUCTURE AS WELL AS PREPARATION METHOD THEREFOR AND USE THEREOF” (priority 2023, published 2026)
Converted amounts (≈) assume the structure as drawn.

Assays:
[1] = tested on: Pathogenic fungi of rice sheath blight; experiment: In vitro fungicidal activity, mycelial growth rate method; assay type: cell-based; conditions: 50 mg/L, PDA plate
[2] = tested on: Pathogenic fungi of pepper phytophthora disease; experiment: as above; assay type: cell-based; conditions: 50 mg/L, PDA plate; for inhibition at 50 µg/mL: Phytophthora
[3] = tested on: Pathogenic fungi of wheat scab; experiment: whole plant or invertebrate; assay type: cell-based; conditions: for inhibition rate, Pathogenic fungi of wheat scab: 50 mg/L, PDA plate, mycelial growth; for inhibition at 50 µg/mL: read-out: inhibition rate, Pathogenic fungi of wheat scab
[4] = tested on: Pathogenic fungi of rice bakanae disease; experiment: In vitro fungicidal activity, mycelial growth rate method; assay type: cell-based; conditions: 50 mg/L, PDA plate
[5] = tested on: Pathogenic fungi of rape sclerotinia; experiment: as above; assay type: cell-based; conditions: 50 mg/L, PDA plate; for inhibition at 50 µg/mL: Sclerotinia
[6] = tested on: Pathogenic fungi of tomato gray mold; experiment: as above; assay type: cell-based; conditions: 50 mg/L, PDA plate
[7] = tested on: Wheat scab pathogenic fungi; assay type: cell-based
[8] = tested on: Rice bakanae pathogenic fungi; experiment: Precise toxicity testing, five concentration gradients of toxic PDA plates; assay type: cell-based
[9] = tested on: Rape sclerotinia pathogenic fungi; experiment: as above; assay type: cell-based
wheat powdery mildew = experiment: In vivo protective activity, live pot cultivation method; conditions: 400 mg/L, sprayed 24 hours before inoculation, potted plants
Experimental: (§1) The determination method was as follows: the live pot cultivation determination method was used, that is, the compound sample to be tested was dissolved in a small amount of solvent (the type of solvent was such as acetone, methanol, and DMF, and was selected according to its dissolving ability for the sample, with a volume ratio of solvent amount to spray amount equal to or less than 0.05), diluted with water containing 0.1% Tween 80, and prepared into a test solution with a required concentration. With a crop sprayer, the test solution was sprayed on a pathogen host plant (the host plant was a standard potted seedling cultivated in a greenhouse), and inoculation with the pathogen was performed after 24 hours. Based on the characteristics of the pathogen, plants that require temperature control and moisturizing cultivation were inoculated and placed in an artificial climate chamber for cultivation, and transferred to a greenhouse for cultivation after the pathogen infection was completed. […] The disease prevention efficacy of the compound was evaluated after the disease had fully developed (usually one week).
(§2) At a concentration of 400 mg/L, the in vivo protective activity determination results of some compounds are as follows: […]

cucumber downy mildew = experiment: as above; conditions: 400 mg/L, sprayed 24 hours before inoculation, potted plants
Experimental: as §1, §2

corn rust disease = experiment: as above; conditions: 400 mg/L, sprayed 24 hours before inoculation, potted plants
Experimental: as §1, §2

Compound: 5-(4-methyl-2-oxo-1-oxaspiro[4,5]-dec-3-en-3-ethylidene)-2-thio-4-thiazolidinone [Compound 3-1]
- inhibition rate, Pathogenic fungi of rice sheath blight [1]: 45.2 ± 2.1%
- inhibition rate, Pathogenic fungi of pepper phytophthora disease [2]: 59.7 ± 0.4%
- inhibition rate, Pathogenic fungi of wheat scab [3]: 100.0 ± 0.0%
- inhibition rate, Pathogenic fungi of rice bakanae disease [4]: 100.0 ± 0.0%
- inhibition rate, Pathogenic fungi of rape sclerotinia [5]: 82.4 ± 1.7%
- inhibition rate, Pathogenic fungi of tomato gray mold [6]: 62.4 ± 2.5%
- EC50 [7]: 0.079 µg/mL
- EC90 [7]: 4.97 µg/mL
- EC50 [8]: 0.72 µg/mL
- EC90 [8]: 5.04 µg/mL
- EC50 ([9]; Rape sclerotinia): 2.02 µg/mL
- EC90 ([9]; Rape sclerotinia): 9.81 µg/mL

Compound: CC(=C1SC(Nc2ccc(C(F)(F)F)cc2)=NC1=O)C1=C(c2ccc(Cl)cc2)C2(CCCCC2)OC1=O [Compound I-6-9]
- efficacy against wheat powdery mildew (wheat powdery mildew): 88%

Compound: CCOC(=O)C(C#N)=C(N)c1ccccc1 [Phenamacril]
- inhibition rate, Pathogenic fungi of rice sheath blight [1]: 11.5 ± 1.4%
- inhibition rate, Pathogenic fungi of pepper phytophthora disease [2]: 8.1 ± 2.1%
- inhibition rate, Pathogenic fungi of wheat scab [3]: 100.0 ± 0.0%
- inhibition rate, Pathogenic fungi of rice bakanae disease [4]: 100.0 ± 0.0%
- inhibition rate, Pathogenic fungi of rape sclerotinia [5]: 23.0 ± 1.3%
- inhibition rate, Pathogenic fungi of tomato gray mold [6]: 13.1 ± 0.3%
- EC50 [7]: 0.078 µg/mL (≈ 0.361 µM)
- EC90 [7]: 5.60 µg/mL (≈ 25.9 µM)
- EC50 [8]: 0.071 µg/mL (≈ 0.328 µM)
- EC90 [8]: 0.54 µg/mL (≈ 2.5 µM)

Compound: CC(=C1SC(Nc2ccc(F)cc2-c2ccc(Cl)c(Cl)c2)=NC1=O)C1=C(c2ccc(C(F)(F)F)cc2)C2(CCCCC2)OC1=O [Compound I-12-15]
- efficacy against cucumber downy mildew (cucumber downy mildew): 93%

Compound: 5-(4-phenyl-2-oxo-1-oxaspiro[4,5]-dec-3-en-3-ethylidene)-2-thio-4-thiazolidinone [Compound 3-4]
- inhibition rate, Pathogenic fungi of rice sheath blight [1]: 31.9 ± 5.6%
- inhibition rate, Pathogenic fungi of pepper phytophthora disease [2]: 44.8 ± 0.3%
- inhibition rate, Pathogenic fungi of wheat scab [3]: 27.7 ± 2.9%
- inhibition rate, Pathogenic fungi of rice bakanae disease [4]: 15.8 ± 2.4%
- inhibition rate, Pathogenic fungi of rape sclerotinia [5]: 68.3 ± 4.2%
- inhibition rate, Pathogenic fungi of tomato gray mold [6]: 33.6 ± 1.7%

Compound: Cc1nc(C(F)(F)F)c(C(=O)Nc2c(Br)cc(OC(F)(F)F)cc2Br)s1 [Thifluzamide]
- inhibition at 50 µg/mL [1]: 90.1 ± 4.5%
- inhibition at 50 µg/mL [2]: 15.1 ± 2.8%
- inhibition at 50 µg/mL [3]: 13.4 ± 6.3%
- inhibition at 50 µg/mL [4]: 5.8 ± 1.4%
- inhibition at 50 µg/mL [5]: 83 ± 1.2%
- inhibition at 50 µg/mL [6]: 28.2 ± 1.2%
- EC50 ([9]; Sclerotinia): 1.53 µg/mL (≈ 2.9 µM)
- EC90 ([9]; Sclerotinia): 16.3 µg/mL (≈ 30.8 µM)

Compound: CSc1ccc(C2=C(C(C)=C3SC(Nc4ccccc4-c4ccc(Cl)cc4)=NC3=O)C(=O)OC23CCCCC3)cc1 [Compound I-10-17]
- efficacy against corn rust disease (corn rust disease): 89%

Compound: COC(=O)Nc1nc2ccccc2[nH]1 [Carbendazim]
- inhibition at 50 µg/mL [1]: 100%
- inhibition at 50 µg/mL [2]: 4.6 ± 1.2%
- inhibition at 50 µg/mL [3]: 100%
- inhibition at 50 µg/mL [4]: 87.5 ± 3.1%
- inhibition at 50 µg/mL [5]: 72.5 ± 2.1%
- inhibition at 50 µg/mL [6]: 5.4 ± 2.4%

Compound: CC(=C1SC(NCC(C)C)=NC1=O)C1=C(c2cccc(Cl)c2)C2(CCCCC2)OC1=O [Compound I-14-6]
- efficacy against wheat powdery mildew (wheat powdery mildew): 85%

Compound: CCCCNC1=NC(=O)C(=C(C)C2=C(c3ccc(Br)cc3)C3(CCCCC3)OC2=O)S1 [Compound I-7-5]
- efficacy against cucumber downy mildew (cucumber downy mildew): 95%

Compound: CCCCNC1=NC(=O)C(=C(C)C2=C(c3ccccc3)C(C)(C)OC2=O)S1 [Compound I-3-5]
- efficacy against corn rust disease (corn rust disease): 86%

Compound: CC(=C1SC(Nc2ccccc2)=NC1=O)C1=C(c2cccc(C(F)(F)F)c2)C2(CCCCC2)OC1=O [Compound I-16-7]
- efficacy against wheat powdery mildew (wheat powdery mildew): 81%
